# Reference: patent US10981932B2, “Macrocyclic indole derivatives” (Bayer Aktiengesellschaft, priority 2016, dated 2021)
# Where a name gives a salt, the structure may show the parent alone. Read-outs that look alike come from different tables or passages of the source.
# Assays:
# SUDHL5 [1] = assay: Anti-proliferative effect (CellTiter-Glo, 72 h), SUDHL5; assay type: cell-based; settings: SUDHL5 cells, antiproliferation, median, read-out: Antiproli SUDHL5 [M] (median)
# How it was run: (§1)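 After seeding, one plate is read right away by CellTiter-Glo luminescence to fix time zero. The treated plates stay at 37 °C in humidified air for 72 h and are then measured with the same reagent and 10 min incubation.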
# SUDHL5 [2] = assay: Induction of cytotoxicity (CellTiter-Glo, 5 h), SUDHL5
# MV-4-11 = assay: Anti-proliferative effect (CellTiter-Glo, 72 h), MV-4-11; assay type: cell-based; settings: MV-4-11 cells, median, read-out: IC50 antiproliferation assay MV-4-11 [M] (median)
# Procedure: Assessment of the Anti-Proliferative Effect of Compounds in Different Cell Lines
# The impact of compounds on the proliferation of different cell lines was assessed using the CellTiter-Glo® Luminescent Cell Viability reagent from Promega (G7573). Of note, SUDHL10 and SUDHL5 (DLBCL), NCI-H929 (Multiple Myeloma), A2780 (ovarian carcinoma) as well as MV-4-11(AML) cells are sensitive to MCL-1 inhibition.
# In parallel, cells were plated in a reference (day 0) plate for time zero determination.
# Rim wells were excluded. The cells were incubated for 72 h hours in a humidified incubator at 37° C. The day 0 plate was measured by adding 30 μl/well of CTG solution (CellTiter-Glo® Luminescent Cell Viability reagent, Promega G7573) to time zero wells in the reference plate followed by a 10 minutes incubation and luminescence reading at 0.1 ms, using the PHERAstar FS microplate reader (BMG Labtech).
# After 72 h incubation, the treated plates were measured in the same way as the day 0 plate mentioned above.
# A2780 = assay: Anti-proliferative effect (CellTiter-Glo, 72 h), A2780; assay type: cell-based; settings: A2780 cells, median, read-out: IC50 antiproliferation assay A2780 [M] (median)
# How it was run: as §1
# SUDHL5 [3] = assay: Induction of caspase-3/7 activity (Caspase-Glo 3/7), SUDHL5; assay type: cell-based; settings: caspase-3/7 induction, SUDHL5 cells, 3 h treatment, median
# How it was run: (§2)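 Apoptosis induction measured as caspase-3/7 activity (Caspase-Glo 3/7) in DLBCL lines after 3 h treatment at 37 °C; EC50 derived relative to the reference compound's maximal induction, with C0 fixed at 1.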
# SUDHL10 [4] = assay: Induction of caspase-3/7 activity (Caspase-Glo 3/7), SUDHL10; assay type: cell-based; settings: caspase-3/7 induction, SUDHL10 cells, 3 h treatment, median
# How it was run: as §2
# MCL-1 = MCL-1 (Homo sapiens, UniProt Q07820); assay: Protein-protein interaction assay MCL-1/Noxa BH3 peptide (MCL-1 assay), TR-FRET; assay type: binding; settings: MBP-MCL-1 / Noxa BH3-derived peptide, median
# How it was run: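 Inhibition values were normalized between DMSO controls with all reagents and controls lacking MCL-1. The binding competition used 1 nM MBP-MCL-1 in pH 7 Tris buffer containing 50 mM KF and 100 mM NaCl, with a 10 min compound preincubation at 22 °C.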
# SUDHL10 [5] = assay: Induction of cytotoxicity (CellTiter-Glo, 5 h), SUDHL10
# [6] = read-out: Cytotox SUDHL5 [M] (median), SUDHL5 cells, cytotoxicity induction, CellTiter-Glo, 5 h incubation, median
# [7] = read-out: Cytotox SUDHL10 [M] (median), SUDHL10 cells, cytotoxicity induction, CellTiter-Glo, 5 h incubation, median
# [8] = read-out: Cytotox SUDHL5 [M] (median), SUDHL5 cells, cytotoxicity induction, CellTiter-Glo, 5 h, median
# [9] = Homo sapiens, SU-DHL10, 5 h, read-out: Cytotox SUDHL10 [M] (median), SUDHL10 cells, cytotoxicity induction, CellTiter-Glo, 5 h, median
# [10] = Homo sapiens, SU-DHL-5, 5 h, read-out: Cytotox SUDHL5 [M] (median), SUDHL5 cells, cytotoxicity induction, CellTiter-Glo, 5 h, median
# Sequence of MCL-1 (Q07820 whole entry): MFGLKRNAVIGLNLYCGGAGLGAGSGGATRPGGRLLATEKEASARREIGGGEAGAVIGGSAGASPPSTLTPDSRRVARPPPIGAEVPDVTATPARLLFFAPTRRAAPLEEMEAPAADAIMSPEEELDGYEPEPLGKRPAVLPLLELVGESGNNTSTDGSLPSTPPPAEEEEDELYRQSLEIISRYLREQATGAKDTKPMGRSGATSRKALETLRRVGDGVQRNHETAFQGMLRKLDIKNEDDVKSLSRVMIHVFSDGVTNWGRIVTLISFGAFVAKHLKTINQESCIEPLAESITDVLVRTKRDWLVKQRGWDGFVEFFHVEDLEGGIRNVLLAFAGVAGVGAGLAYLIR
SMILES,IC50 (SUDHL5 [1]; 72 h incubation) [M],IC50 (MV-4-11) [M],IC50 (A2780) [M],EC50 (SUDHL5 [3]) [µM],EC50 (SUDHL10 [4]) [µM],IC50 (MCL-1) [nM],IC50 (SUDHL5 [1]; 72 h) [M],"IC50 (SUDHL5 [1]; Homo sapiens, SU-DHL-5, 72 h, 72 h) [M]","IC50 (MV-4-11; Homo sapiens, MV4-11, 72 h) [M]","IC50 (A2780; Homo sapiens, A2780, 72 h) [M]","EC50 (SUDHL10 [4]; Homo sapiens, SU-DHL10, 3 h) [µM]","EC50 (SUDHL5 [3]; Homo sapiens, SU-DHL-5, 3 h) [µM]",IC50 (SUDHL5 [2]; [6]) [M],IC50 (SUDHL10 [5]; [7]) [M],IC50 (SUDHL5 [2]; [8]) [M],"IC50 (SUDHL10 [5]; read-out: Cytotox SUDHL10 [M] (median), SUDHL10 cells, cytotoxicity induction, CellTiter-Glo, 5 h, median)",IC50 (SUDHL10 [5]; [9]) [M],IC50 (SUDHL5 [2]; [10]) [M],"IC50 (SUDHL5 [2]; Homo sapiens, SU-DHL-5, 5 h, read-out: Cytotox SUDHL5 [M] (median), SUDHL5 cells, cytotoxicity induction, CellTiter-Glo, 5 h incubation, median)","IC50 (SUDHL10 [5]; Homo sapiens, SU-DHL10, 5 h, read-out: Cytotox SUDHL10 [M] (median), SUDHL10 cells, cytotoxicity induction, CellTiter-Glo, 5 h incubation, median)"
"Cc1ccc2c(CCCOc3cccc4cc(F)ccc34)c(C(=O)O)n3c2c1-c1c(nn(CCN2CCOCC2)c1C)COCCCC3 (single isomer, unassigned) [Example 294, (−)-7-{3-[(6-fluoronaphthalen-1-yl)oxy]propyl}-3,4-dimethyl-2-[2-(morpholin-4-yl)ethyl]-2,10,11,12,13,15-hexahydropyrazolo[4′,3′:9,10][1,6]oxazacycloundecino[8,7,6-hi]indole-8-carboxylic acid-N-ethylethanamine Salt]",,1.53e-05,1.88e-05,6.95,10.8,5.79,5.96e-06,,,,,,,,5.95e-06,1.08e-05,,,,
"CCc1nn(C)c2c1-c1c(C)ccc3c(C(C)CCOc4cccc5cc(F)ccc45)c(C(=O)O)n(c13)CCCCOC2 (single isomer, unassigned) [Example 265, 3-ethyl-7-{4-[(6-fluoronaphthalen-1-yl)oxy]butan-2-yl}-1,4-dimethyl-1,10,11,12,13,15-hexahydropyrazolo[4′,3′:9,10][1,6]oxazacycloundecino[8,7,6-hi]indole-8-carboxylic Acid]",2.58e-06,,,2.71,10.1,5.85,,,2.75e-06,,,,2.09e-06,7.35e-06,,,,,,
"CN1CCCn2c(C(=O)O)c(CCCOc3cccc4ccccc34)c3cccc(c32)-c2c(nn(C)c2COc2ccc(N3CCN(S(=O)(=O)N(C)C)CC3)cc2)C1 (single isomer, unassigned; enantiomer 2) [Example 1-113, 11-({4-[4-(Dimethylsulfamoyl)piperazin-1-yl]phenoxy}methyl)-7,10-dimethyl-1-[3-(1-naphthyloxy)propyl]-4,5,6,7,8,10-hexahydropyrazolo[3′,4′:7,8][1,5]diazecino[9,10,1-hi]indole-2-carboxylic Acid (Enantiomer 2)]",1.05e-05,1.2e-05,,10.5,9.08,27.7,,,,,,,1.31e-05,2.06e-05,,,,,,
"CN1CCCn2c(C(=O)O)c(CCCOc3cccc4ccccc34)c3cccc(c32)-c2c(nn(C)c2COc2ccc(N3CCN(S(=O)(=O)N(C)C)CC3)cc2)C1 (single isomer, unassigned; enantiomer 1) [Example 1-112, 11-({4-[4-(Dimethylsulfamoyl)piperazin-1-yl)phenoxy]methyl}-7,10-dimethyl-1-[3-(1-naphthyloxy)propyl]-4,5,6,7,8,10-hexahydropyrazolo[3′,4′:7,8][1,5]diazecino[9,10,1-hi]indole-2-carboxylic Acid (Enantiomer 1)]",2.72e-06,2.69e-06,,2.32,3.34,12,,,,,,,3.3e-06,5.46e-06,,,,,,
"Cc1nn(C)c2c1-c1cccc3c(CCCOc4cccc5ccccc45)c(C(=O)O)n(c13)CCCCN(C)C2 (single isomer, unassigned) [Example 239, (−)-1,3,15-trimethyl-7-[3-(naphthalen-1-yloxy)propyl]-1,10,11,12,13,14,15,16-octahydropyrazolo[4′,3′:4,5][1,7]diazacyclododecino[3,2,1-hi]indole-8-carboxylic Acid]",,,,,,92.7,,,1.07e-05,2.27e-05,> 33,> 33,,,,,,,> 3.3e-05,3.03e-05

# The next lines start with results.
IC50 (SUDHL5 [1]; 72 h incubation) [M],IC50 (MV-4-11) [M],IC50 (A2780) [M],EC50 (SUDHL5 [3]) [µM],EC50 (SUDHL10 [4]) [µM],IC50 (MCL-1) [nM],IC50 (SUDHL5 [1]; 72 h) [M],"IC50 (SUDHL5 [1]; Homo sapiens, SU-DHL-5, 72 h, 72 h) [M]","IC50 (MV-4-11; Homo sapiens, MV4-11, 72 h) [M]","IC50 (A2780; Homo sapiens, A2780, 72 h) [M]","EC50 (SUDHL10 [4]; Homo sapiens, SU-DHL10, 3 h) [µM]","EC50 (SUDHL5 [3]; Homo sapiens, SU-DHL-5, 3 h) [µM]",SMILES,IC50 (SUDHL5 [2]; [6]) [M],IC50 (SUDHL10 [5]; [7]) [M],IC50 (SUDHL5 [2]; [8]) [M],"IC50 (SUDHL10 [5]; read-out: Cytotox SUDHL10 [M] (median), SUDHL10 cells, cytotoxicity induction, CellTiter-Glo, 5 h, median)",IC50 (SUDHL10 [5]; [9]) [M],IC50 (SUDHL5 [2]; [10]) [M],"IC50 (SUDHL5 [2]; Homo sapiens, SU-DHL-5, 5 h, read-out: Cytotox SUDHL5 [M] (median), SUDHL5 cells, cytotoxicity induction, CellTiter-Glo, 5 h incubation, median)","IC50 (SUDHL10 [5]; Homo sapiens, SU-DHL10, 5 h, read-out: Cytotox SUDHL10 [M] (median), SUDHL10 cells, cytotoxicity induction, CellTiter-Glo, 5 h incubation, median)"
1.18e-05,1.11e-05,8.02e-06,> 33,32.4,194,,,,,,,"Cc1ccc2c(C(C)CCOc3cccc4cc(F)ccc34)c(C(=O)O)n3c2c1-c1c(nn(C)c1C)COCCCC3 (single isomer, unassigned) [Example 280, 7-{4-[(6-fluoronaphthalen-1-yl)oxy]butan-2-yl}-2,3,4-trimethyl-2,10,11,12,13,15-hexahydropyrazolo[4′3′:9,10][1,6]oxazacycloundecino[8,7,6-hi]indole-carboxylic Acid]",> 3.3e-05,3.07e-05,,,,,,
,,,> 33,,166,,7.39e-06,2.63e-05,2.32e-05,> 33,,"CCc1nn(C)c2c1-c1cccc3c(CCCOc4cccc5c(F)cccc45)c(C(=O)O)n(c13)CCCCOC2 (single isomer, unassigned) [Example 299, 3-ethyl-7-{3-[(5-fluoronaphthalen-1-yl)oxy]propyl}-1-methyl-1,10,11,12,13,15-hexahydropyrazolo[4′,3′:9,10][1,6]oxazacycloundecino[8,7,6-hi]indole-8-carboxylic Acid]",,,> 3.3e-05,,> 3.3e-05,,,
,,,,,543,,,1.16e-05,1.11e-05,> 33,> 33,"Cc1c2c(nn1C)COCCCCn1c(C(=O)O)c(CCCOc3cccc4cc(C(F)(F)F)ccc34)c3cccc-2c31 (single isomer, unassigned; enantiomer 1) [Example 311, 2,3-dimethyl-7-(3-{[6-(trifluoromethyl)naphthalen-1-yl]oxy}propyl)-2,10,11,12,13,15-hexahydropyrazolo[4′,3′:9,10][1,6]oxazacycloundecino[8,7,6-hi]indole-8-carboxylic Acid (Enantiomer 1)]",,,,,1.49e-05,2.12e-05,,
,,,,,33.5,,,1.35e-05,1.56e-05,> 33,> 33,"CCc1nn(C)c2c1-c1cccc3c(CCCOc4cccc5cc(C(F)(F)F)ccc45)c(C(=O)O)n(c13)CCCCOC2 (single isomer, unassigned; enantiomer 1) [Example 314, 3-ethyl-1-methyl-7-(3-{[6-(trifluoromethyl)naphthalen-1-yl]oxy}propyl)-1,10,11,12,13,15-hexahydropyrazolo[4′,3′:9,10][1,6]oxazacycloundecino[8,7,6-hi]indole-8-carboxylic Acid (Enantiomer 1)]",,,,,2.09e-05,1.56e-05,,
,,,7.18,,5.07,,,> 3.3e-05,> 3.3e-05,> 33,,"Cc1ccc2c(OCCCc3c(C(=O)O)n4c5c(cccc35)-c3c(nn(C)c3C)COCCCC4)cccc2c1 (single isomer, unassigned; enantiomer 1) [Example 308, 2,3-dimethyl-7-{3-[(6-methylnaphthalen-1-yl)oxy]propyl}-2,10,11,12,13,15-hexahydropyrazolo[4′3′:9,10][1,6]oxazacycloundecino[8,7,6-hi]indole-carboxylic Acid (Enantiomer 1)]",,,5.61e-06,,> 3.3e-05,,,
